3 molecules from patent EP0497921B1, “METHOD FOR INHIBITING ENZYMATIC SYNTHESIS OF NUCLEIC ACIDS USING ISOPSORALENS” (ISAACS, Stephen T., priority 1989, dated 1991) can be followed below.

For series [1], the system named is Taq I DNA polymerase. The series is described as follows: Primer extension on site-specific 71-mer monoadduct template. Format: biochemical, Thermus aquaticus. The following applies: for Taq polymerase extension on 71-mer monoadduct template / position of the Taq polymerase stop within the 71-mer: 55°C, PAGE, autoradiography; for Taq polymerase extension on 71-mer monoadduct template: 0.5, 1.0, 5.0 mins. Here is the method: In this experiment, monoadducted 71-mers (as well as unmodified 71-mers) were used in template-dependent enzymatic extension. AMIP, AMDMIP, and MIP 71-mer monoadducts were made as in Example 17. Extension was carried out as in Example 18 except that in this experiment, Taq I DNA polymerase, a thermostable DNA polymerase isolated from Thermus aquaticus (Stratagene, Inc., La Jolla, CA) was assessed for its ability to read past isopsoralens.
The reaction mixture was in 80 µl total volume and comprised 1 x Taq buffer, 200 µM each of dNTP's, 0.05 units of Taq per µl of reaction volume; 1 x 10^-9 M in 71-mer MA; 1 x 10^-8 M in ^32P-labelled SK-39. Each reaction was set up with everything except Taq polymerase. The samples were initially heated to 95°C for 5 mins, then incubated at 55°C for 3 mins. The extension reaction was initiated by addition of Taq polymerase. At the indicated time points (0.5, 1.0, 5.0 mins), 20 µl of the reaction mix was removed to a tube containing 1 µl of 0.5 M EDTA to stop the reaction. All products were analyzed on a 20% polyacrylamide, 7 M urea gel followed by autoradiography.
This experiment investigated whether blocking of Taq polymerase by monoadducts is complete or whether monoadducts can be bypassed by the enzyme. In order to view the process of bypass synthesis, it is necessary to cycle the extension reaction of the primer with the 71-mer templates. Cycling in this case consists of mixing the primer with the 71-mer template, adding Taq polymerase and appropriate reagents, extending, heating to induce strand separation, reannealing of the primer to the 71-mer template, extending again, and subsequent stand separation. This process can be repeated as necessary. During this process, only the complement of the 71-mer template is being synthesized. It is accumulating in a linear fashion with the number of thermal cycles (in contrast to PCR where both strands are being synthesized and accumulate geometrically).
The templates and reaction conditions were as in Example 19 above except that three samples were used for each monoadduct and each sample was tested under different conditions: • Samples (1): one sample for each monoadduct was used to carry out extension at 55°C as in Example 43; • Samples (2): one sample for each monoadduct was used to carry out extension by the following series of steps: denaturing at 95°C; incubating for 30 seconds at 55°C; adding Taq polymerase for 3 minutes at 550C; cooling the reaction for 1 minute at 7°C; stopping the reaction with EDTA for one minute at 95°C: • Samples (3): one sample for each monoadduct was used to carry out extension by repeating the following series of steps nine times: denaturing at 95°C; incubating for 30 seconds at 55°C; adding Taq polymerase for 3 minutes at 55°C; cooling the reaction for 1 minute at 7°C. At the end, the reaction is stopped with EDTA for one minute at 95°C.
To investigate this question further, a new 5-MIP monoadducted 71-mer was prepared by repurification of the HPLC purified 5-MIP monoadducted 15-mer by PAGE. In this way, more of the non-monoadducted 15-mer was removed prior to ligation. The purified 71-mer was then used as template in an extension experiment as described in Example 20. After 10 cycles, there was still evidence of extension product (Figure 34).
Monoadducted 71-mer was constructed as described, but for HMT. Extension was carried out and analyzed as before on PAGE. […] Full length 71-mer is not made and a shorter strand corresponding to the position of the HMT adduct was made.

Series [2] concerns calf thymus DNA. The series can be described thus: Covalent photobinding of tritiated isopsoralens (scintillation counting). Format: binding. To be noted: for actual concentrations obtained empirically: nominal concentration of 100 µg/ml in calf thymus DNA / 1 x TE, counted after sitting overnight at room temperature. Here is the method: Figure 17 can again be referred to as a flow chart schematically showing the manner in which covalent binding was measured for the compounds synthesized by the methods of the present invention. ^3H-AMIP (3.1 x 10^5 cpm/µg), ^3H-AMDMIP (2.2 x 10^5 cpm/µg), and ^3H-MIP (2.1 x 10^5 cpm/µg) were added to 300 µl of calf thymus DNA (Sigma) in 1 x TE buffer. All of the isopsoralen compounds were added at a nominal concentration of 100 µg/ml. However, actual concentrations obtained empirically (counted after sitting overnight at room temperature) were: ^3H-AMIP (105 µg/ml), ^3H-AMDMIP (115 µg/ml), and ^3H-MIP ([…]).
To assess binding, three samples were prepared for each compound; two were irradiated (15 minutes at 25°C with the CE-I device) while one was unirradiated as a control. Following irradiation, the samples were extracted four times with CHCl3 then precipitated twice. The final pellet was brought up in 1 ml of 1 x TE buffer and resuspended by shaking at 40°C overnight. 50 µl of each sample was then diluted to 0.5 mls with H20. The concentration of DNA was determined by UV absorption (A260) and the amount of covalently bound isopsoralen ("adduct") was determined by scintillation counting (3 x 100 µl aliquots). From these numbers, the following binding ratios (adducts: DNA base pair) were determined: […]

Turning to “4'-Aminomethyl-4,5'-dimethylisopsoralen [AMDMIP]”, in series [1], the “Taq polymerase extension on 71-mer monoadduct template” value (“Taq polymerase extension” below) is “stops at positions that are shorter than the full length 71-mer product” and the “position of the Taq polymerase stop within the 71-mer” value (“position” below) was “a different stop altogether”. Moreover, the “actual concentrations obtained empirically” value in series [2] was found to be 115 µg/mL.

5-Aminomethylisopsoralen [AMIP]: in series [1], the “Taq polymerase extension” value is listed as “stops at positions that are shorter than the full length 71-mer product” and the “position” value is given as “multiple stops”. Also, the “actual concentrations obtained empirically” value in series [2] was 105 µg/mL. The “modification density relative to that provided by AMDMIP” value in series [2] (photobinding at the same concentration) is given as 43%.

With `Cc1cc2occc2c2oc(=O)ccc12` [MIP, 5-Methylisopsoralen], in series [1], the “Taq polymerase extension” value was “stops at positions that are shorter than the full length 71-mer product” and the “position” value is “at about the position of the TpA sequence in the 10-mer”. The extension products truncated in series [1] (monoadducted 15-mer repurified by PAGE before ligation, after 10 cycles) is 97.7%. For the same molecule, the “full length extension product as share of the total extension products” value in series [1] (monoadducted 15-mer repurified by PAGE before ligation, after 10 cycles, band excised and counted) stood at 2.3%. Besides, the “actual concentrations obtained empirically” value in series [2] is less than 10 µg/mL.
